1 molecule from patent publication US6432934B1, “Methods and compositions for topical treatment of eye surface inflammation and related dry eye disease” (Advanced Vision Research, priority 1998, dated 2002) can be followed below.

Experiment [1] relates to rabbit model for meibomianitis/meibomian gland dysfunction. Nature of the experiment: Conjunctival goblet-cell density, rabbit model for meibomianitis/meibomian gland dysfunction. The class given is in vivo, New Zealand white rabbits. Particulars: intramuscular 50 mg/kg/d, five days each week, weeks 8-20 post-op.
Experiment [2] shares this test system. Nature of the experiment: Corneal epithelial glycogen level, rabbit model for meibomianitis/meibomian gland dysfunction. The class given is in vivo, New Zealand white rabbits. Particulars: intramuscular 50 mg/kg/d, five days each week, weeks 8-20 post-op.

On to `CN(C)[C@@H]1C(O)=C(C(N)=O)C(=O)[C@@]2(O)C(O)=C3C(=O)c4c(O)cccc4[C@@](C)(O)[C@H]3C[C@@H]12.Cl` [systemic tetracycline, tetracycline hydrochloride], for which the “effect on conjunctival goblet-cell density” value in experiment [1] is “no effect”. Further, in experiment [2], the “effect on corneal glycogen” value is recorded as “no effect”.
